Assays:
[1] = test system: P. aeruginosa expressing IMP-1, efflux+ (MB9798); format: cell-based, Pseudomonas aeruginosa; details: for P. aeruginosa expressing IMP-1, efflux+ (MB9798) MITC95: imipenem at 2 μg/mL, in the presence of a class A, C, D serine β-lactamase inhibitor closely related to relebactam; for Efflux ratio: ratio MITC95 PA_9798/MITC95 PA_9799
Description: (§1) The strain background is Pseudomonas aeruginosa PAO1.

[2] = test system: P. aeruginosa expressing IMP-1, efflux− (MB9799); assay: Efflux: concentration of MBL inhibitor which restores susceptibility to imipenem; format: cell-based, Pseudomonas aeruginosa; details: imipenem at 2 μg/mL, in the presence of a class A, C, D serine β-lactamase inhibitor closely related to relebactam
Description: as §1

NDM-1 = NDM-1 (Klebsiella pneumoniae, UniProt C7C422); assay: biochemical; format: biochemical; details: CCF2-FA substrate, 2 hours at 25° C; read-out: NDM-1 IC50
In short: (§2)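 Class B activity is measured in the presence of compound by fluorescence with CCF2-FA after a 2-hour incubation at 25° C. IC50 is taken from a 4-parameter fit of semi-logarithmic dose-response data.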

IMP-1 = IMP-1 (Serratia marcescens, UniProt P52699); assay: biochemical; format: biochemical; details: CCF2-FA substrate, 2 hours at 25° C; read-out: IMP-1 IC50
In short: as §2

[3] = test system: Klebsiella pneumoniae expressing VIM-1 (IHMA599644); format: cell-based; details: with imipenem 1 μg/ml, 95% inhibition of bacterial growth; for Klebsiella pneumoniae MITC95: VIM-1 (IHMA599644)
In short: (§3)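 Clinical strains grown overnight on blood agar, then diluted 1:100 in 1.1× CAMHB and exposed to test compound with imipenem at 1 μg/ml. Incubation was 22–24 h at 35° C; growth was read by absorbance to find the compound concentration restoring imipenem susceptibility.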

[4] = test system: Serratia marcescens expressing IMP-1 (CL5741); format: cell-based; details: with imipenem 1 μg/ml, 95% inhibition of bacterial growth; for Serratia marcescens MITC95: IMP-1 (CL5741)
In short: as §3

[5] = test system: Escherichia coli expressing NDM-1 (CLB30005, CLB30016); format: cell-based; details: with imipenem 1 μg/ml, 95% inhibition of bacterial growth; for Escherichia coli MITC95: NDM-1 (CLB30016)
In short: as §3

VIM-1 = VIM-1 (Pseudomonas aeruginosa (strain ATCC 15692 / DSM 22644 / CIP 104116 / JCM 14847 / LMG 12228 / 1C / PRS 101 / PAO1), UniProt A0A0F7KYQ8); assay: biochemical; details: CCF2-FA substrate, 2 hours at 25° C
In short: as §2

IMP-1, sequence (P52699 whole entry, looked up, species assumed): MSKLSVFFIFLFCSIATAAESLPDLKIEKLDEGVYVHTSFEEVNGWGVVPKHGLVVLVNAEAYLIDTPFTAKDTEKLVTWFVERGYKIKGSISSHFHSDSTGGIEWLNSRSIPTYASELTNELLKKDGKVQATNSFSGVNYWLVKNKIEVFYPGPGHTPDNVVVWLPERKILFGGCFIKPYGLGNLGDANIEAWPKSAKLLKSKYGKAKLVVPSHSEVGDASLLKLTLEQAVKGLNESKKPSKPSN
NDM-1, sequence (C7C422 whole entry, looked up, species assumed): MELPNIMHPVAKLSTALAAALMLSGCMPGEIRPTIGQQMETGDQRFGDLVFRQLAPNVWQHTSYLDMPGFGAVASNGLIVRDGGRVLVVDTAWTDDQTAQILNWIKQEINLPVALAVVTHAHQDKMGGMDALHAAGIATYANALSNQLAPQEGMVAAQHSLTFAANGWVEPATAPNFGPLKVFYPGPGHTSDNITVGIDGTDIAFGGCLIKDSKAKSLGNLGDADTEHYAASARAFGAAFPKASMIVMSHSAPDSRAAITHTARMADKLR

## NCCS(=O)(=O)c1ccc(-c2cccc3[nH]c([C@H](N)CNC(=O)C(F)(F)F)nc23)c(-c2nn[nH]n2)c1S(N)(=O)=O [Example 328, (R)—N-(2-Amino-2-(4-(4-((2-aminoethyl)sulfonyl)-3-sulfamoyl-2-(2H-tetrazol-5-yl)phenyl)-1H-benzo[d]imidazol-2-yl)ethyl)-2,2,2-trifluoroacetamide]
[1]
  P. aeruginosa expressing IMP-1, efflux+ (MB9798) MITC95: 3.125 µM
  Efflux ratio: 2.00
[2]
  P. aeruginosa expressing IMP-1, efflux− (MB9799) MITC95: 1.563 µM
NDM-1
  IC50: 1.3 nM
IMP-1
  IC50: 3.42 nM
[3]
  Klebsiella pneumoniae MITC95: 3.125 µM
[4]
  Serratia marcescens MITC95: 3.125 µM
[5]
  Escherichia coli MITC95: 1.563 µM
VIM-1
  IC50: 0.474 nM

## Nc1nc2cccc(-c3ccc([S+]([O-])C4CCNCC4)c(S(N)(=O)=O)c3-c3nn[nH]n3)c2[nH]1 (stereo not drawn) [Example 14, 3-(2-amino-3H-benzo[d]imidazol-4-yl)-6-(piperidin-4-ylsulfinyl)-2-(2H-tetrazol-5-yl)benzenesulfonamide]
[1]
  P. aeruginosa expressing IMP-1, efflux+ (MB9798) MITC95: 6.25 µM
  Efflux ratio: 4.00
[2]
  P. aeruginosa expressing IMP-1, efflux− (MB9799) MITC95: 1.563 µM
NDM-1
  IC50: 0.292 nM
IMP-1
  IC50: 23.9 nM
[3]
  Klebsiella pneumoniae expressing VIM-1 (IHMA599644) MITC95: 3.125 µM
[4]
  Serratia marcescens expressing IMP-1 (CL5741) MITC95: 3.125 µM
[5]
  Escherichia coli expressing NDM-1 (CLB30016) MITC95: 6.25 µM
VIM-1
  IC50: 0.868 nM

## Nc1nc2cccc(-c3ccc(S(=O)(=O)[C@H]4CCNC4)c(S(N)(=O)=O)c3-c3nn[nH]n3)c2[nH]1 [Example 182, 3-(2-amino-3H-benzo[d]imidazol-4-yl)-6-((S)-pyrrolidin-3-ylsulfonyl)-2-(2H-tetrazol-5-yl)benzenesulfonamide]
[1]
  P. aeruginosa expressing IMP-1, efflux+ (MB9798) MITC95: 0.6406 µM
  Efflux ratio: 1.00
[2]
  P. aeruginosa expressing IMP-1, efflux− (MB9799) MITC95: 0.6406 µM
NDM-1
  IC50: 0.154 nM
IMP-1
  IC50: 0.979 nM
[3]
  Klebsiella pneumoniae expressing VIM-1 (IHMA599644) MITC95: 0.8906 µM
[4]
  Serratia marcescens expressing IMP-1 (CL5741) MITC95: 0.6406 µM
[5]
  Escherichia coli expressing NDM-1 (CLB30016) MITC95: 0.25 µM
VIM-1
  IC50: 0.21 nM

## NC[C@H](CO)S(=O)(=O)c1ccc(-c2cccc3nc(N)[nH]c23)c(-c2nn[nH]n2)c1S(N)(=O)=O [Example 351, (R)-3-(2-amino-1H-benzo[d]imidazol-7-yl)-6-((1-amino-3-hydroxypropan-2-yl)sulfonyl)-2-(1H-tetrazol-5-yl)benzenesulfonamide]
[1]
  P. aeruginosa expressing IMP-1, efflux+ (MB9798) MITC95: 0.7813 µM
  Efflux ratio: 1.00
[2]
  P. aeruginosa expressing IMP-1, efflux− (MB9799) MITC95: 0.7813 µM
NDM-1
  IC50: 0.2 nM
IMP-1
  IC50: 1.36 nM
[3]
  Klebsiella pneumoniae MITC95: 1.563 µM
[4]
  Serratia marcescens MITC95: 0.7813 µM
[5]
  Escherichia coli MITC95: 0.7813 µM
VIM-1
  IC50: 0.711 nM

## CNc1nc2c(-c3ccc(S(=O)(=O)CCN)c(S(N)(=O)=O)c3-c3nn[nH]n3)cccc2s1 [Example 90, 6-(2-aminoethylsulfonyl)-3-(2-(methylamino)benzo[d]thiazol-4-yl)-2-(2H-tetrazol-5-yl)benzene sulfonamide]
[1]
  P. aeruginosa expressing IMP-1, efflux+ (MB9798) MITC95: 1.563 µM
  Efflux ratio: 2.00
[2]
  P. aeruginosa expressing IMP-1, efflux− (MB9799) MITC95: 0.7813 µM
NDM-1
  IC50: 0.0746 nM
IMP-1
  IC50: 0.0995 nM
[3]
  Klebsiella pneumoniae expressing VIM-1 (IHMA599644) MITC95: 1.563 µM
[4]
  Serratia marcescens expressing IMP-1 (CL5741) MITC95: 1.563 µM
[5]
  Escherichia coli expressing NDM-1 (CLB30016) MITC95: 0.7813 µM
VIM-1
  IC50: 0.146 nM

## N=C(N)c1nc2c(-c3ccc(S(=O)(=O)C4CNC4)c(S(N)(=O)=O)c3-c3nnn[nH]3)cccc2s1 [Example 62, 4-(4-(Azetidin-3-ylsulfonyl)-3-sulfamoyl-2-(1H-tetrazol-5-yl)phenyl)benzo[d]thiazole-2-carboximidamide]
[1]
  P. aeruginosa expressing IMP-1, efflux+ (MB9798) MITC95: 1.563 µM
  Efflux ratio: 2.00
[2]
  P. aeruginosa expressing IMP-1, efflux− (MB9799) MITC95: 0.7813 µM
NDM-1
  IC50: 0.345 nM
IMP-1
  IC50: 2.63 nM
[3]
  Klebsiella pneumoniae expressing VIM-1 (IHMA599644) MITC95: 1.563 µM
[4]
  Serratia marcescens expressing IMP-1 (CL5741) MITC95: 1.563 µM
[5]
  Escherichia coli expressing NDM-1 (CLB30016) MITC95: 0.3906 µM
VIM-1
  IC50: 0.396 nM

## NCCS(=O)(=O)c1ccc(-c2cccc3[nH]c(=O)[nH]c23)c(-c2nnn[nH]2)c1S(N)(=O)=O.O=C(O)C(F)(F)F [Example 150, 2-((4-(2-oxo-2,3-dihydro-1H-benzo[d]imidazol-4-yl)-2-sulfamoyl-3-(1H-tetrazol-5-yl)phenyl)sulfonyl)ethanaminium 2,2,2-trifluoroacetate]
[1]
  P. aeruginosa expressing IMP-1, efflux+ (MB9798) MITC95: 1.563 µM
  Efflux ratio: 1.00
[2]
  P. aeruginosa expressing IMP-1, efflux− (MB9799) MITC95: 1.563 µM
NDM-1
  IC50: 0.497 nM
IMP-1
  IC50: 0.931 nM
[3]
  Klebsiella pneumoniae expressing VIM-1 (IHMA599644) MITC95: 3.125 µM
[4]
  Serratia marcescens expressing IMP-1 (CL5741) MITC95: 3.125 µM
[5]
  Escherichia coli expressing NDM-1 (CLB30016) MITC95: 3.125 µM
VIM-1
  IC50: 0.44 nM

## C[S+]([O-])c1ccc(-c2ccc(C3CCNCC3)cc2)c(-c2nnn[nH]2)c1S(N)(=O)=O (stereo not drawn) [Example 235, 4-(methylsulfinyl)-4′-(piperidin-4-yl)-2-(1H-tetrazol-5-yl)-[1,1′-biphenyl]-3-sulfonamide]
[1]
  P. aeruginosa expressing IMP-1, efflux+ (MB9798) MITC95: 50 µM
  Efflux ratio: 8.00
[2]
  P. aeruginosa expressing IMP-1, efflux− (MB9799) MITC95: 6.25 µM
NDM-1
  IC50: 31.9 nM
IMP-1
  IC50: 23.6 nM
[3]
  Klebsiella pneumoniae expressing VIM-1 (IHMA599644) MITC95: 50 µM
[4]
  Serratia marcescens expressing IMP-1 (CL5741) MITC95: 12.5 µM
[5]
  Escherichia coli expressing NDM-1 (CLB30016) MITC95: 12.5 µM
VIM-1
  IC50: 8.18 nM

## CS(=O)(=O)c1ccc(-c2cccc3sc(N)nc23)c(-c2nn[nH]n2)c1S(N)(=O)=O [Example 239, 3-(2-aminobenzo[d]thiazol-4-yl)-6-(methylsulfonyl)-2-(2H-tetrazol-5-yl) benzenesulfonamide]
[1]
  P. aeruginosa expressing IMP-1, efflux+ (MB9798) MITC95: 1.563 µM
  Efflux ratio: 1.00
[2]
  P. aeruginosa expressing IMP-1, efflux− (MB9799) MITC95: 1.563 µM
NDM-1
  IC50: 0.129 nM
IMP-1
  IC50: 0.0909 nM
[3]
  Klebsiella pneumoniae expressing VIM-1 (IHMA599644) MITC95: 6.25 µM
[4]
  Serratia marcescens expressing IMP-1 (CL5741) MITC95: 3.125 µM
[5]
  Escherichia coli expressing NDM-1 (CLB30016) MITC95: 12.5 µM
VIM-1
  IC50: 0.108 nM

## CC(=O)Nc1nc2c(-c3ccc(S(=O)(=O)CCN)c(S(N)(=O)=O)c3-c3nn[nH]n3)cccc2s1 [Example 82, N-(4-(4-(2-aminoethylsulfonyl)-3-sulfamoyl-2-(2H-tetrazol-5-yl)phenyl)benzo[d]thiazol-2-yl)acetamide]
[1]
  P. aeruginosa expressing IMP-1, efflux+ (MB9798) MITC95: 3.125 µM
  Efflux ratio: 2.00
[2]
  P. aeruginosa expressing IMP-1, efflux− (MB9799) MITC95: 1.563 µM
NDM-1
  IC50: 0.0871 nM
IMP-1
  IC50: 0.194 nM
[3]
  Klebsiella pneumoniae expressing VIM-1 (IHMA599644) MITC95: 3.125 µM
[4]
  Serratia marcescens expressing IMP-1 (CL5741) MITC95: 1.563 µM
[5]
  Escherichia coli expressing NDM-1 (CLB30016) MITC95: 1.563 µM
VIM-1
  IC50: 0.131 nM

## NCCNC(=O)c1cc(-c2ccc(S(=O)(=O)CCN)c(S(N)(=O)=O)c2-c2nn[nH]n2)cnc1N [compound 337, 2-amino-N-(2-aminoethyl)-5-(4-((2-aminoethyl)sulfonyl)-3-sulfamoyl-2-(2H-tetrazol-5-yl)phenyl)nicotinamide]
[1]
  P. aeruginosa expressing IMP-1, efflux+ (MB9798) MITC95: 6.25 µM
  Efflux ratio: 8.00
[2]
  P. aeruginosa expressing IMP-1, efflux− (MB9799) MITC95: 0.7813 µM
NDM-1
  IC50: 5.65 nM
IMP-1
  IC50: 12.3 nM
[3]
  Klebsiella pneumoniae MITC95: 1.563 µM
[4]
  Serratia marcescens MITC95: 1.563 µM
[5]
  Escherichia coli MITC95: 0.7813 µM
VIM-1
  IC50: 4.38 nM
